PubChem BioAssay AID2033 (NMMLSC, 2009)

target: Ras-related protein Rab-2A (Canis lupus familiaris) (UniProt P61105); experiment: wildtype Rab2 GTP-binding inhibitors, SAR follow-up, biochemical, multiplex dose response, Bodipy-FL-GTP, flow cytometry (AID 2033); settings: GST-Rab2 beads, Ki calculated from EC50
Sequence (P61105 whole entry, looked up): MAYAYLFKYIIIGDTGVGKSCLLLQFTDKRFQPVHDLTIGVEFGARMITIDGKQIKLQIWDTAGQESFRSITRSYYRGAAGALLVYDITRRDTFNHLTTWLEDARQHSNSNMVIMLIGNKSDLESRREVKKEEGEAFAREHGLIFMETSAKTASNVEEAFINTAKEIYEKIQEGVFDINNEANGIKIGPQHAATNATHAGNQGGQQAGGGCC

Point of comparison: `Cc1ccc(C)c(N2CCN(C(=O)CCc3nc(-c4cccc(Cl)c4)no3)CC2)c1`, Ki 180 nM. Against it:
- Cc1ccc(C)c(N2CCN(C(=O)CCc3nc(-c4ccc(Cl)cc4)no3)CC2)c1 — 1.6-fold lower, 110 nM
- COc1ccc(-c2noc(CCC(=O)N3CCN(c4ccccc4F)CC3)n2)cc1 — 3.6-fold lower, 50 nM
- COc1ccc(-c2cc(CCC(=O)N3CCN(c4cc(C)ccc4C)CC3)on2)cc1 — within 1.5-fold, 160 nM
- COc1ccc(-c2noc(CCC(=O)N3CCN(c4ccccc4C(F)(F)F)CC3)n2)cc1 — within 1.5-fold, 130 nM
- Cc1ccc(C)c(N2CCN(C(=O)CCc3nc(-c4ccccc4Br)no3)CC2)c1 — within 1.5-fold, 200 nM
- COc1ccc(-c2noc(CCC(=O)N3CCN(c4cccc(Cl)c4)CC3)n2)cc1 — 3-fold higher, 540 nM
- COc1ccc(-c2noc(CCC(=O)N3CCC(c4cc(C)ccc4C)CC3)n2)cc1 — within 1.5-fold, 160 nM
- COc1ccc(-c2noc(CCC(=O)N3CCN(c4cccc(OC)c4)CC3)n2)cc1 — 2.3-fold higher, 410 nM
- Cc1ccc(C)c(N2CCN(C(=O)CCc3nc(-c4ccc(F)cc4)no3)CC2)c1 — 9-fold lower, 20 nM
- COc1ccc(-c2noc(CCC(=O)N3CCN(c4ccccc4Br)CC3)n2)cc1 — within 1.5-fold, 210 nM
- Cc1ccc(-c2noc(CCC(=O)N3CCN(c4cc(C)ccc4C)CC3)n2)cc1 — within 1.5-fold, 260 nM
- COc1ccc(-c2noc(CCC(=O)N3CCN(c4ccc(C)cc4)CC3)n2)cc1 — 3.6-fold lower, 50 nM
- COc1ccc(-c2noc(CCC(=O)N3CCN(c4cccc(C)c4C)CC3)n2)cc1 — within 1.5-fold, 150 nM
- Cc1ccc(C)c(N2CCN(C(=O)CCc3nc(-c4ccccc4C)no3)CC2)c1 — 1.6-fold lower, 110 nM
- Cc1ccc(C)c(N2CCN(C(=O)CCc3nc(-c4cccc(Br)c4)no3)CC2)c1 — within 1.5-fold, 230 nM
- Cc1ccc(C)c(N2CCN(C(=O)CCc3nc(-c4ccccc4F)no3)CC2)c1 — 3-fold lower, 60 nM
- COc1ccc(-c2noc(CCC(=O)N3CCN(c4ccccc4Cl)CC3)n2)cc1 — within 1.5-fold, 150 nM
- COc1ccc(-c2noc(CCCC(=O)N3CCN(c4cc(C)ccc4C)CC3)n2)cc1 — 5.7-fold higher, 1030 nM
- Cc1ccc(C)c(N2CCN(C(=O)CCc3nc(-c4ccccc4)no3)CC2)c1 — 3.6-fold lower, 50 nM
- COc1cccc(-c2noc(CCC(=O)N3CCN(c4cc(C)ccc4C)CC3)n2)c1 — within 1.5-fold, 250 nM
- COc1ccc(-c2noc(CCC(=O)N3CCN(c4ccccc4OC)CC3)n2)cc1 — 2.2-fold lower, 80 nM
- Cc1cccc(-c2noc(CCC(=O)N3CCN(c4cc(C)ccc4C)CC3)n2)c1 — 2.2-fold lower, 80 nM
- COc1ccc(-c2noc(CCC(=O)N3CCN(c4ccccc4C)CC3)n2)cc1 — within 1.5-fold, 160 nM
- COc1ccc(-c2ccc(CCC(=O)N3CCN(c4cc(C)ccc4C)CC3)[nH]2)cc1 — 1.8-fold higher, 330 nM
- COc1ccc(-c2noc(CCC(=O)N3CCN(c4cc(C)ccc4C)CC3)n2)cc1 — within 1.5-fold, 160 nM
- COc1ccc(-c2ccc(CCC(=O)N3CCN(c4cc(C)ccc4C)CC3)o2)cc1 — 5.3-fold higher, 960 nM
- Cc1ccc(C)c(N2CCN(C(=O)CCc3nc(-c4ccc(Br)cc4)no3)CC2)c1 — within 1.5-fold, 190 nM
- COc1ccc(-c2ccc(CCC(=O)N3CCN(c4cc(C)ccc4C)CC3)s2)cc1 — within 1.5-fold, 160 nM
